Experimental findings from ChEMBL document CHEMBL4428068, “Allosteric Modulation of Phosphatase Activity May Redefine Therapeutic Value” (J Med Chem, 2016) are described below.

The assay has as its target T1, Tyrosine-protein phosphatase non-receptor type 11 (Homo sapiens, UniProt Q06124).
T1 sequence (Q06124 whole entry): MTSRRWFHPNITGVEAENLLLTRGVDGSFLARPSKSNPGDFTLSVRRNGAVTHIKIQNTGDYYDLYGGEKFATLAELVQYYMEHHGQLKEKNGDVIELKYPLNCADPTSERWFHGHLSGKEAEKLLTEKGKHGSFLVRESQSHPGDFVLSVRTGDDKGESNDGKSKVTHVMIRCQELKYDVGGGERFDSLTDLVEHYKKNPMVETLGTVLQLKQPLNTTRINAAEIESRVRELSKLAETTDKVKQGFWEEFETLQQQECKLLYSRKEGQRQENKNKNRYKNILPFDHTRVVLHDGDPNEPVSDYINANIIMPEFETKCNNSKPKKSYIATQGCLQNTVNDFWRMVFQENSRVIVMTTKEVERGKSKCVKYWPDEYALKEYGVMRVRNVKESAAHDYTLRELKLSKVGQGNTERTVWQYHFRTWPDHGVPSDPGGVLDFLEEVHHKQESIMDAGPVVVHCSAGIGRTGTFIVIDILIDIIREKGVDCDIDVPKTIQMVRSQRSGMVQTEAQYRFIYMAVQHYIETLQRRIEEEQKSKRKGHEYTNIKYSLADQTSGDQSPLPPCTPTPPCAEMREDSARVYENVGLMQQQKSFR
The assay can be described thus: Negative allosteric modulator activity at SHP2 (unknown origin).

For `C[C@@H]1CN(c2ncc(-c3cccc(Cl)c3Cl)c(N)n2)C[C@H](C)N1`, the IC50 worked out at 12 µM.
